Data taken from paper PMC12340637, “Transport of Small Aliphatic Amines by Polyspecific Solute Carriers: Deciphering Structure–Function Relationships” (ACS Pharmacology & Translational Science, 2025).
Like-named read-outs stand apart in the source and are kept apart here. Marks after values point to notes of the source that are not given here.

How the values were obtained:
OCT1 (SLC22A1) [1] = biological target: T1, OCT1 (SLC22A1) (Homo sapiens, UniProt O15245); test: in vitro; conditions: pH 7.4
T1 sequence (O15245 1-554): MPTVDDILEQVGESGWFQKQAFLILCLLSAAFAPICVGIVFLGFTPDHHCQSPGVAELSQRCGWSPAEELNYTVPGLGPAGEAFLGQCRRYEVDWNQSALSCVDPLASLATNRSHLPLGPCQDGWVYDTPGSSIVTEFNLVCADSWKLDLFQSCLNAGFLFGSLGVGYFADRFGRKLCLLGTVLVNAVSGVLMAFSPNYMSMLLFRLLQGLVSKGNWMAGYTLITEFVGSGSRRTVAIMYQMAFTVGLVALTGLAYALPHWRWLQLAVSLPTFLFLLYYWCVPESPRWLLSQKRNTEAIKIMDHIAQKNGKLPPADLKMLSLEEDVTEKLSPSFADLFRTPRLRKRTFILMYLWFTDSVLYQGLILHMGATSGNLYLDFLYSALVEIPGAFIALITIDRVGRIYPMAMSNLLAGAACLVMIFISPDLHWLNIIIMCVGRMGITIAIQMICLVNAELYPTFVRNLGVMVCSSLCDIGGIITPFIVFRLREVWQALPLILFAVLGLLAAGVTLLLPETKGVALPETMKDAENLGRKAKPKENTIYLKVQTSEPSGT

MATE1 (SLC47A1) [2] = biological target: T2, MATE1 (SLC47A1) (Homo sapiens, UniProt Q96FL8); test: in vitro; conditions: pH 7.4
T2 sequence (Q96FL8 1-570): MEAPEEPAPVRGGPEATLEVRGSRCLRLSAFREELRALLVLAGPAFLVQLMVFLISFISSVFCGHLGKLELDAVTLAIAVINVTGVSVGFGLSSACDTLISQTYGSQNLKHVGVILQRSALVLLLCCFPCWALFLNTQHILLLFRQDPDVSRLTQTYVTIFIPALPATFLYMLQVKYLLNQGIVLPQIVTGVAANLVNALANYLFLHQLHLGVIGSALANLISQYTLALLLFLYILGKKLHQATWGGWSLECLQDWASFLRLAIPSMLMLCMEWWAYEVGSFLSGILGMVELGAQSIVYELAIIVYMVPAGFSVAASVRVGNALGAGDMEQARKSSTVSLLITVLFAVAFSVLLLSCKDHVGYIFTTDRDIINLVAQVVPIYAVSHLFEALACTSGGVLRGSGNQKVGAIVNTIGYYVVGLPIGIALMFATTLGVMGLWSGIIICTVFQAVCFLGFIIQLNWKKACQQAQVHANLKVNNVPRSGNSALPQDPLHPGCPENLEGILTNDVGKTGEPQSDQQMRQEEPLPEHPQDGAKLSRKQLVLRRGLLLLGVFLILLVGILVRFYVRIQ

MATE2-K (SLC47A2) [3] = biological target: T3, MATE2-K (SLC47A2) (Homo sapiens, UniProt Q86VL8); test: in vitro; conditions: pH 7.4
T3 sequence (Q86VL8 1-566 isoform Q86VL8-3): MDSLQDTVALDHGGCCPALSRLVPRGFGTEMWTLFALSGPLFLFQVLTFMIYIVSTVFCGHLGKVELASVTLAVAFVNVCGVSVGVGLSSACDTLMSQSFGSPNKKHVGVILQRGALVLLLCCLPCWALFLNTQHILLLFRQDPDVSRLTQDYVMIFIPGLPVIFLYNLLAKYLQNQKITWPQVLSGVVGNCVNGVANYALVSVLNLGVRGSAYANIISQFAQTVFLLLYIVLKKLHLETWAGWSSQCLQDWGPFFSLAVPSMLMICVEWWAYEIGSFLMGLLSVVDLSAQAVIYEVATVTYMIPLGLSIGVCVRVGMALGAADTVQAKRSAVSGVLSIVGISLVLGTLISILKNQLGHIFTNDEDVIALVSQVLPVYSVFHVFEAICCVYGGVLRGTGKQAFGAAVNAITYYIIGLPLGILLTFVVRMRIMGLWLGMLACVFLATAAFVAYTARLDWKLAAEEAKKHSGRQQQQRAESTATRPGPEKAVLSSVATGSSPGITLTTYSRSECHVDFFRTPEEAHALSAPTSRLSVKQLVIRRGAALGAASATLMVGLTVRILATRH

OCT2 (SLC22A2) [4] = biological target: T4, OCT2 (SLC22A2) (Homo sapiens, UniProt O15244); test: Cellular uptake into OCT2-overexpressing HEK293 cells vs EV control cells (HPLC-MS/MS)
T4 sequence (O15244 1-555): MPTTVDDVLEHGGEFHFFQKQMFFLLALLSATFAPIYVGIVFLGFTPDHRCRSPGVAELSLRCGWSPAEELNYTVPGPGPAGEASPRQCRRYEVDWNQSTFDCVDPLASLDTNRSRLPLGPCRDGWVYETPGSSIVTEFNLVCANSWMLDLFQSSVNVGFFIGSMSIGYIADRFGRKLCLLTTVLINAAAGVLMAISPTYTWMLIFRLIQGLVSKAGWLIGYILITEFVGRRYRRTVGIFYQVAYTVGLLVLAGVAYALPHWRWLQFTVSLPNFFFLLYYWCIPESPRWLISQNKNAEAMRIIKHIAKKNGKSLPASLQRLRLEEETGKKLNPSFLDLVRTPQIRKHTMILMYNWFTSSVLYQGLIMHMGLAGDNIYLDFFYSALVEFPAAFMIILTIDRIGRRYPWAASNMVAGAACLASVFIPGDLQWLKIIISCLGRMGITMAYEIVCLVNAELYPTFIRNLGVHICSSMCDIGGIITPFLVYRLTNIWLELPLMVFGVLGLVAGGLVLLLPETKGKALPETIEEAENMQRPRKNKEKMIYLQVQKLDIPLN

OCT2 (SLC22A2) [5] = biological target: T4, OCT2 (SLC22A2); conditions: pH 7.4
OCT1 (SLC22A1) [6] = biological target: T1, OCT1 (SLC22A1); test: Cellular uptake into OCT1-overexpressing HEK293 cells vs EV control cells (HPLC-MS/MS)
OCT3 (SLC22A3) = biological target: T5, OCT3 (SLC22A3) (Homo sapiens, UniProt O75751); test: Cellular uptake into OCT3-overexpressing HEK293 cells vs EV control cells (HPLC-MS/MS); conditions: for uptake ratio OCT3 (transporter-overexpressing cells over EV control cells): mean (±SD, N): 2 min, HEK293
T5 sequence (O75751 1-556): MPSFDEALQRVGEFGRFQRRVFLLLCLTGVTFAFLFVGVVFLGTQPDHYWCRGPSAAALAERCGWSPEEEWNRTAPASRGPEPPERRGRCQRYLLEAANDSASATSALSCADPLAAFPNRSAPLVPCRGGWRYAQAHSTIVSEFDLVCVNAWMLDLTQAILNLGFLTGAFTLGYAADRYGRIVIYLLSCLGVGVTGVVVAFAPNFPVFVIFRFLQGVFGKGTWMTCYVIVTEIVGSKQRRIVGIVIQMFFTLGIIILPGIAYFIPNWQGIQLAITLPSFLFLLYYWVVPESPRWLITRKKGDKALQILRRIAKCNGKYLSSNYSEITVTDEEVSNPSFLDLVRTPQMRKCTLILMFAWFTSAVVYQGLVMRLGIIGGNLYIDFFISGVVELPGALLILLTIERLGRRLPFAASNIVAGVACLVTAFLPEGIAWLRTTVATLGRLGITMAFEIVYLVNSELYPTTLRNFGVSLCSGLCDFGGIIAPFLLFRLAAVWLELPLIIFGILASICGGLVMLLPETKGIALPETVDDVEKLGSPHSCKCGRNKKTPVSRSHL

MATE1 (SLC47A1) [7] = biological target: T2, MATE1 (SLC47A1); test: Cellular uptake into MATE1-overexpressing HEK293 cells vs EV control cells (HPLC-MS/MS)
MATE2-K (SLC47A2) [8] = biological target: T3, MATE2-K (SLC47A2); test: Cellular uptake into MATE2-K-overexpressing HEK293 cells vs EV control cells (HPLC-MS/MS)
OCT2 (SLC22A2) [9] = biological target: T4, OCT2 (SLC22A2); test: in vitro; conditions: pH 7.4
[10] = OCT2, net uptake, Michaelis–Menten
[11] = 2.5 μM substrate (§), 2 min, HEK293
[12] = 2.5 μM substrate (§), 2 min, HEK293, listed as L-tert-leucinol
[13] = 2.5 μM substrate, 1 min, 30 mM NH4Cl preincubation, HEK293
[14] = 2.5 μM substrate, 1 min, 30 mM NH4Cl preincubation, HEK293, listed as L-tert-leucinol

SMILES | selectivity ratio at 2 min (OCT1 (SLC22A1) [1]) | selectivity ratio at 1 min (MATE1 (SLC47A1) [2]) | selectivity ratio at 1 min (MATE2-K (SLC47A2) [3]) | K m (±SEM) (OCT2 (SLC22A2) [4]; [10]) | v max (±SEM) (OCT2 (SLC22A2) [4]; [10]) | selectivity ratio at 2 min (OCT2 (SLC22A2) [9]) | also measured
CCCC[C@@H](N)CO [(R)-(−)-2-amino-1-hexanol] | 1.1 | 1.2 | 1.3 | 59 (±11) μM | 1342 (±84) ^b pmol/mg protein/min |  | higher v max of one enantiomer over the other, OCT2 (OCT2 (SLC22A2) [4]; label = enantiomer with higher v max): 1.7 fold
CCC[C@@H](N)CO [(R)-(−)-2-amino-1-pentanol] | 1.1 | 1.5 | 1.2 | 198 (±67) μM | 1453 (±179) ^a pmol/mg protein/min |  | 
CC(C)NC(C)C [diisopropylamine] |  |  |  |  |  |  | CLint (±SEM) (OCT2 (SLC22A2) [5]): 20 (±12) μL/mg protein/min; uptake ratio OCT1 (transporter-overexpressing cells over EV control cells): mean (±SD, N) (OCT1 (SLC22A1) [6]): 1.4 (0.3, 4); uptake ratio OCT2 (transporter-overexpressing cells over EV control cells): mean (±SD, N) (OCT2 (SLC22A2) [4]): 5.1 (1.2, 4) ^b; v max (±SEM) (OCT2 (SLC22A2) [4]): 1388 (±157) pmol/mg protein/min; uptake ratio OCT3 (transporter-overexpressing cells over EV control cells): mean (±SD, N) (OCT3 (SLC22A3); 10 μM substrate): 1.1 (0.2, 4); uptake ratio MATE1 (transporter-overexpressing cells over EV control cells): mean (±SD, N) (MATE1 (SLC47A1) [7]): 0.8 (0.02, 3) ^b; uptake ratio MATE2K (transporter-overexpressing cells over EV control cells): mean (±SD, N) (MATE2-K (SLC47A2) [8]): 1.2 (0.1, 3)
C[C@@H](N)CCO [(R)-3-aminobutan-1-ol] | 1.1 | 1.9 | 1.4 |  |  | 2.7 | 
CC(C)[C@@H](N)CO [D-valinol] | 1.3 | 1.4 |  | 329 (±190) μM | 2488 (±573) pmol/mg protein/min |  | 
CC(C)(C)[C@H](N)CO [L-tert-Leucinol] | 1.3 |  |  |  |  | 1.4 | uptake ratio OCT1 (transporter-overexpressing cells over EV control cells): mean (±SD, N) (OCT1 (SLC22A1) [6]; [11]): 1.4 (0.4, 3); uptake ratio OCT1 (transporter-overexpressing cells over EV control cells): mean (±SD, N) (OCT1 (SLC22A1) [6]; [12]): 1.4; uptake ratio OCT2 (transporter-overexpressing cells over EV control cells): mean (±SD, N) (OCT2 (SLC22A2) [4]; [11]): 10.8 (1.4, 3) ^b; uptake ratio OCT2 (transporter-overexpressing cells over EV control cells): mean (±SD, N) (OCT2 (SLC22A2) [4]; [12]): 10.8; uptake ratio OCT3 (transporter-overexpressing cells over EV control cells): mean (±SD, N) (OCT3 (SLC22A3); 2.5 μM substrate (§)): 2.1 (0.5, 3); uptake ratio OCT3 (transporter-overexpressing cells over EV control cells): mean (±SD, N) (OCT3 (SLC22A3); 2.5 μM substrate (§), listed as L-tert-leucinol): 2.1; stereoselectivity OCT3 (uptake ratio of the more strongly transported enantiomer divided by that of the other) (OCT3 (SLC22A3); label = favoured enantiomer): 1.9-fold for(S) ^a; uptake ratio MATE1 (transporter-overexpressing cells over EV control cells): mean (±SD, N) (MATE1 (SLC47A1) [7]; [13]): 0.7 (0.2, 3); uptake ratio MATE1 (transporter-overexpressing cells over EV control cells): mean (±SD, N) (MATE1 (SLC47A1) [7]; [14]): 0.7; uptake ratio MATE2K (transporter-overexpressing cells over EV control cells): mean (±SD, N) (MATE2-K (SLC47A2) [8]; [13]): 0.9 (0.3, 3); uptake ratio MATE2K (transporter-overexpressing cells over EV control cells): mean (±SD, N) (MATE2-K (SLC47A2) [8]; [14]): 0.9
